Results reported in patent US9605013B2, “Derivatives of hemin with antibacterial and antiviral activity” (OBSCHESTVO S OGRANICHENNOI OTVETSTVENNOSTIYU …, priority 2011, dated 2017).

Key:
Format in all cases: cell-based
[1] = system: Micrococcus luteus BKM Ac-2230; experiment: Antibacterial activity, serial dilutions in liquid MH medium
Method: (§1) The antibacterial activity of the compounds was determined against strains of gram-positive bacteria such as Staphylococcus aureus 209P, Enterococcus faecalis BKM B-871, Micrococcus luteus BKM Ac-2230, Bacillus subtilis BKM B-501, and gram-negative bacteria such as Pseudomonas aeruginosa PAO1 and Escherichia coli KM MGU C-600. BKM strains were acquired from the All-Russia Collection of Microorganisms at the Institute for Biochemistry and Physiology of Microorganisms, Russian Academy of Sciences. Strain Staphylococcus aureus 209P was acquired from the Collection of Microorganisms at the Department of microbiology of the Faculty of Biology of Lomonosov Moscow State University, and Pseudomonas aeruginosa PAO1 was acquired from the Collection of Microorganisms at the Institute of Bioorganic Chemistry of the Russian Academy of Sciences.
(§2) The main parameters characterizing the antibacterial activity are the minimal inhibitory concentration (MIC) and minimal bactericidal concentration (MBC). […] MBC is the least concentration that causes the death of all cells.
(§3) MIC was quantified by inhibiting culture growth in a liquid medium with serial dilutions of compounds using a modified procedure [Amsterdam, D., 1966. “Susceptibility testing of antimicrobials in liquid media,” pp. 52-111. In Loman, V., ed. Antibiotics in laboratory medicine, 4th ed. Williams and Wilkins, Baltimore].
(§4) Bacteria were cultured and tested on an MH liquid medium (Mueller-Hinton medium: a dry extract of beef broth, 4 g/L; starch, 1.5 g/L; casein hydrolyzate, 17.5 g/L; Sigma-Fluka Catalog No. 70192) at 37° C., 100% humidity, and under stirring. Cultures (within 4 to 7 passages after thawing) in the exponential growth phase were used for tests.
(§5) All tested compounds absorb light at 595 nm, a wavelength used for evaluating bacterial culture growth. Therefore, a correction for absorption was applied in estimating the optical density of bacterial suspensions for each compound with account for its concentration in the well. Bacterial growth inhibition (GI) as percentage after 20 hours of incubating cells with compounds was derived from the optical density (A) measured in every well at a wavelength of 595 nm using the equation: GIi=[(Act−Ac0)−(Ait−Ai0)]×100/(Act−Ac0), (1) wherein the subscripts have the following meanings: i denotes the well number, c denotes a control well with bacteria whereto the tested compound is not inserted, 0 refers to the measurement taken immediately once the tested compound was inserted to the well, and t refers to the measurement taken 20 hours after the compound was inserted.
(§6) The protocol for the determination of experimental antibacterial activity of the tested compounds was as follows. A cryovial with the test strain culture in a medium with 7% DMSO stored in liquid nitrogen, was rapidly defrosted, and 1.5 mL of the fresh MH medium was inoculated with 100 μL of the cell suspension. Cells were grown for one day at 37° C. and stirred on an orbital shaker at 150 rpm. The morphologic features of the strain and the absence of contamination with foreign bacteria were verified by: (a) inoculation on an agarized (15 g/L agar) MH medium and observation of the shape and color of the grown colonies and (b) examination of characteristic morphologic features under a microscope (Mikmed-2, LOMO, Russia) equipped with a 40× objective lens. Further, the bacteria were cultured in 1 mL of the liquid MH medium at 37° C. under stirring. The cells were reseeded every day. Cell cultures were used in tests starting with 3rd reseeding and ending with 6th one.
(§7) For testing, 5 μL of a bacterial suspension in the stationary growth phase was transferred to 1 mL of a sterile MH medium and incubated until the exponential growth phase was attained (3 to 5 h, 37° C., stirring at 150 rpm). To estimate the microorganism concentration, the optical density (A) of the resulting bacterial culture was measured at a wavelength of 595 nm. […]

[2] = system: Bacillus subtilis BKM B-501; experiment: as above; conditions: MH medium, 20 h, 37° C., 100% growth inhibition
Method: as §1, §2, §3, §4, §5, §6, §7

[3] = system: Staphylococcus aureus No. 3797 (MRSA); experiment: Antibacterial specific activity, twofold dilutions, visual growth evaluation; conditions: St. aur No. 3797 MRSA; 36° C., 24 hours
Method: (§8) The specific activity of compounds also was determined against bacteria strains such as Staphylococcus aureus No. 25923 ATCC (American Type Culture Collection); Staphylococcus aureus No. 100 KC; Staphylococcus epidermidis No. 533; Enterococcus faecalis No. 559; Enterococcus faecium No. 569, Staphylococcus aureus No. 5 (MRSA), Staphylococcus aureus No. 3797 (MRSA). Staphylococcus aureus was cultured on the Trypticase Soy Agar (BBL) commercially available dry medium. Enterococcus faecalis was cultured on the Columbia Agar (BBL) commercially available dry medium. These media were sterilized by autoclaving at 121° C. for 15 min. Bacterial inoculum was constant and was 5×10^5 CFU/ml (10^5 CFU/0.2 ml). For water-soluble compounds, wells from 2nd through 8th were added with the solvent (water) in an amount of 15 μL per well, then the 1st well was added with 30 μL of the stock solution of the tested compound in […] with a concentration of […], and the concentration was adjusted to 0.007×10^3 M by serial twofold dilutions. A 10-μL portion was taken from every well, and 190 μL of the bacterial culture (10^5 CFU) was added per well. For DMSO-soluble compounds, wells from 2nd through 8th were added with the solvent (DMSO) in an amount of 10 μL per well, then the 1st well was added with 20 μL of the stock solution of the tested compound in […] with a concentration of […], and the concentration was adjusted to 0.039×10^3 M by serial twofold dilutions. A 2-μL portion was taken from each well, and 198 μL of the bacterial culture (10^5 CFU) was added per well.
(§9) The control comprised wells free of tested compounds (culture growth control). In addition, purity control of nutritional media and solvents was used. Plates were incubated in a thermostat at 36° C. for 24 hours.
(§10) Culture growth was evaluated visually by comparison of how microorganisms grew in the presence of tested compounds and in the absence of them. MIC was set equal to the last dilution of a tested agent which suppressed bacterial culture growth.

[4] = system: Staphylococcus aureus No. 5 (MRSA); experiment: as above; conditions: St. aur No. 5 MRSA; 36° C., 24 hours
Method: as §8, §9, §10

[5] = system: Staphylococcus aureus No. 100 KC; experiment: as above; conditions: S. aureus 100 KC; 36° C., 24 hours
Method: as §8, §9, §10

[6] = system: Staphylococcus aureus No. 25923 ATCC; experiment: as above; conditions: S. aureus 25923; 36° C., 24 hours
Method: as §8, §9, §10

[7] = system: Enterococcus faecalis No. 559; experiment: as above; conditions: E. faecalis 559; 36° C., 24 hours
Method: as §8, §9, §10

Escherichia coli 4300 = experiment: as above; conditions: E. coli 4300; 36° C., 24 hours
Method: [Worded in the source for another organism; this organism is reported under the same test.] as §8, §9, §10

[8] = system: Staphylococcus epidermidis No. 533; experiment: as above; conditions: S. epidermis 533; 36° C., 24 hours
Method: as §8, §9, §10

[9] = system: Vancomycin-resistant Enterococcus faecium 569; experiment: as above; conditions: Vancomycin-resistant E. faecium 569; 36° C., 24 hours
Method: as §8, §9, §10

[10] = system: Herpes Simplex Virus type 2 strain G (No. VR-734 ATCC); experiment: Antiviral activity, virus cytopathogenic action in Vero cells; design: key: 0: CPA (cytopathogenic action) is not detected; 1: up to 25% virus-infected monolayer; from 25% to 50%; 3: from 50% to 75%; 4: from 75% to 100%; conditions: 48 hours
Method: (§11) […] used in the study were used Herpes Simplex Virus type 1 (the Collection of Microorganisms at the Scientific Research Institute of Virology, strain EC), Herpes Simplex Virus type 2 strain G (No. VR-734 ATCC), and human cytomegalovirus strain AD169 (No. VR-538 ATCC). Herpes Simplex viruses type 1 and type 2 were cultured in Vero cells. The cells were incubated in MEM Eagle growth medium (MEM, BioloT, St-Petersburg, 1.3.3) supplemented with 10% fetal bovine serum (BioloT, St-Petersburg, 1.3.12) in Sanyo MCO-15AC gas-flow thermostat (37° C., 5% CO2) (Tokyo, Japan). A seed dose was 2×10^5 cells/ml in the starting inoculum or 2×10^4 cells/well. Herpes Simplex viruses were cultured under the same conditions in the MEM medium without serum (maintenance medium). Starting viral titers were 10^7 TCID50/ml.
(§12) For DMSO-soluble preparations, stock solutions were prepared in a concentration of 10 mM in DMSO. For water-soluble preparations, a stock solution prepared had the same concentration in the MEM medium (Minimal Essential Medium) for cell cultures. To control cytotoxicity (see below), the stock solution was diluted in the medium to a concentration of 100 μM and ten-fold serial dilutions of the preparations were made in the MEM medium (for DMSO-soluble compounds—in the MEM medium comprising 3% DMSO). The following concentrations of the preparations were used in the study of […]: if toxicity was not found, the concentrations of 100 μM preparations were 100, 10 and 1 μM; if toxicity was detected, the concentrations of 100 μM preparations were 10, 1, and 0.1 μM. Acyclovir (10 μg/ml) was used for Herpes Simplex viruses of both types as a reference preparation to control the viral model validity.
(§13) To study antiviral activity, plate wells with a cell monolayer were added with the preparations in an amount of 0.1 ml/well. To compensate a reduction in the concentration of the preparations, which takes place in the following addition of viruses, twofold concentrations of compounds (i.e. 200, 20 and 2 or 20, 2 and 0.2 μM for […] concentrations of 100 μM preparations, respectively) were used, incubated for an hour and then were infected with the examined 0.1 ml/well viruses in doses 1, 10 and 100 TCID50 (50% tissue infectious dose).
(§14) The virus-specific cytogenic action was manifested in an increase in the size of cells, their rounding, and detachment from a substrate. These morphological characteristics served as their marked difference from the cells subjected to a toxic action of high concentrations of the examined preparations. The latter acquired spindle-like shape, lost contacts with neighboring cells of the monolayer, and their boundaries became more distinct.
(§15) Intensity of the virus-specific changes in the cells were semi-quantified using a 4-score system: 0—CPA (cytopathogenic action) is not detected; 1—up to 25% virus-infected monolayer; 2—from 25% to 50%; 3—from 50% to 75%; and 4—from 75% to 100%. The antiviral activity of a compound was evaluated according to their ability to reduce the manifestation of cytopathogenic action in the plate wells compared to the control values. Differences with the control values by 1 score and more were considered to be significant.

[11] = system: Herpes Simplex Virus type 1 strain EC; experiment: as above; design: key: 0: CPA (cytopathogenic action) is not detected; 1: up to 25% virus-infected monolayer; from 25% to 50%; 3: from 50% to 75%; 4: from 75% to 100%; conditions: 48 hours
Method: as §11, §12, §13, §14, §15

6,7-bis-(Methyl Ester N^α—(N^G-Nitro)Arginyl)-Protohemin (IX) [III]
MIC ([1]; MH medium, 20 h, 37° C., 100% growth inhibition): 1.6 µM | MBC ([1]; no colonies on agarized MH medium): 6.3 µM | MIC [2]: 12.5 µM | MIC [3]: 25 µM | MIC [4]: 25 µM

6,7-bis-[(Amide N^α-L-Arginyl)-L-Seryl]-Protohemin (IX) [XXIII]
MIC [5]: >50.0 µM | MIC [6]: >50.0 µM | MIC [7]: >50.0 µM | MIC (Escherichia coli 4300): >50.0 µM | MIC [3]: >50.0 µM | MIC [8]: >50.0 µM | MIC [4]: >50.0 µM | MIC [9]: >50.0 µM

6,7-bis-[(Amide N^α-L-Seryl)-L-Arginyl]-Protohemin (IX) [XX]
MIC [5]: 0.65 µM | MIC [6]: 1.3 µM | MIC [7]: 1.56 µM | MIC (Escherichia coli 4300): >50.0 µM | MIC [3]: 1.3 µM | MIC [8]: 1.56 µM | MIC [4]: 3.12 µM | MIC [9]: 6.25 µM

6,7-bis-[(Diamide N^α-L-Seryl)-L-glutamyl]-Protohemin (IX) [XII]
manifestation of the virus CPA ([10]; HSV-2, virus dose 1, concentration 0.1 μM): 0.5 scores | manifestation of the virus CPA ([10]; HSV-2, virus dose 1, concentration 1 μM): 0.5 scores | manifestation of the virus CPA ([10]; HSV-2, virus dose 1, concentration 10 μM): 0^1 | manifestation of the virus CPA ([10]; HSV-2, virus dose 10, concentration 0.1 μM): 2 (from 25% to 50%) | manifestation of the virus CPA ([10]; HSV-2, virus dose 10, concentration 1 μM): 1.5 scores | manifestation of the virus CPA ([10]; HSV-2, virus dose 10, concentration 10 μM): 1^1 (up to 25% virus-infected monolayer) | manifestation of the virus CPA ([10]; HSV-2, virus dose 100, concentration 0.1 μM): 3 (from 50% to 75%) | manifestation of the virus CPA ([10]; HSV-2, virus dose 100, concentration 1 μM): 3 (from 50% to 75%) | manifestation of the virus CPA ([10]; HSV-2, virus dose 100, concentration 10 μM): 3 (from 50% to 75%)

6,7-bis-[(Methyl Ester N^α-L-Arginyl)-L-Seryl]-Protohemin (IX) [XXI]
MIC [5]: 0.65 µM | MIC [6]: 0.39 µM | MIC [7]: 1.56 µM | MIC (Escherichia coli 4300): >50.0 µM | MIC [3]: 1.56 µM | MIC [8]: 0.78 µM | MIC [4]: 0.65 µM | MIC [9]: 6.25 µM

Nc1nc2c(ncn2COCCO)c(=O)[nH]1 [Acyclovir, reference compound]
manifestation of the virus CPA ([11]; HSV-1, virus dose 1, 10 μg/ml): 0^1 | manifestation of the virus CPA ([11]; HSV-1, virus dose 10, 10 μg/ml): 0^1 | manifestation of the virus CPA ([11]; HSV-1, virus dose 100, 10 μg/ml): 0^1 | manifestation of the virus CPA ([10]; HSV-2, virus dose 1, 10 μg/ml): 0^1 | manifestation of the virus CPA ([10]; HSV-2, virus dose 10, 10 μg/ml): 0^1 | manifestation of the virus CPA ([10]; HSV-2, virus dose 100, 10 μg/ml): 0^1
